Assay results published in patent US4582822A, “Antibiotic A80190, pharmaceutical compositions containing same and method of use” (Eli Lilly and Company, priority 1984, dated 1986).
Converted amounts (≈) assume the structure as drawn. “And” between values parts separate entries of the source, which are not always exact repeats. Equal entries are not always repeated.

Tests used:
NRRL 15878 = experiment: Resistance to antibiotics, sensitivity discs on seeded agar; format: cell-based, Actinomadura oligospora
Method: (§1) Resistance to antibiotics was measured by padding antibiotic sensitivity discs onto the surface of seeded ISP No. 2 agar plates.
(§2) Table III lists the resistance of the strain to various antibiotics at the concentrations indicated and compares it to that of A. macra.

A. macra = experiment: as above; format: cell-based, Actinomadura macra
Method: as §1, §2

[1] = system: Fusobacterium symbiosum 1470; experiment: Agar-dilution MIC, anaerobic bacteria; format: cell-based; conditions: 24-hour incubation
[2] = system: Clostridium perfringens 81; format: cell-based; conditions: 24-hour incubation
[3] = system: Propionibacterium acnes 79; experiment: Agar-dilution MIC, anaerobic bacteria; format: cell-based; conditions: 24-hour incubation
two-spotted spider mite = experiment: Acaricidal activity; conditions: in vivo
Petococcus prevoti 1281 = experiment: Agar-dilution MIC, anaerobic bacteria; format: cell-based; conditions: 24-hour incubation
[4] = system: Bacteroides fragilis 1877; experiment: Agar-dilution MIC, anaerobic bacteria; format: cell-based; conditions: 24-hour incubation
Method: (§3) One important aspect of the antimicrobial activity of A80190 compounds relates to their activity against anaerobic bacteria. The minimal inhibitory concentrations (MIC's) at which A80190 inhibits various anaerobic bacteria, as determined by standard agar-dilution assay, are summarized in Table VII. End points were read after 24-hour incubation.

[5] = system: Bacteroides melaninogenicus 2736; experiment: Agar-dilution MIC, anaerobic bacteria; format: cell-based; conditions: 24-hour incubation
Method: as §3

[6] = system: Clostridium septicum 1128; experiment: Agar-dilution MIC, anaerobic bacteria; format: cell-based; conditions: 24-hour incubation
Method: as §3

[7] = system: Bacteroides fragilis 1936B; experiment: Agar-dilution MIC, anaerobic bacteria; format: cell-based; conditions: 24-hour incubation
Method: as §3

[8] = system: Bacteroides melaninogenicus 1856/28; experiment: Agar-dilution MIC, anaerobic bacteria; format: cell-based; conditions: 24-hour incubation
Method: as §3

Bacteroides fragilis 111 = experiment: Agar-dilution MIC, anaerobic bacteria; format: cell-based; conditions: 24-hour incubation
Method: as §3

[9] = system: Bacteroides corrodens 1874; experiment: Agar-dilution MIC, anaerobic bacteria; format: cell-based; conditions: 24-hour incubation
Method: as §3

[10] = system: Bacteroides thetaiotaomicron 1438; experiment: Agar-dilution MIC, anaerobic bacteria; format: cell-based; conditions: 24-hour incubation
Method: as §3

[11] = system: Clostridium difficile 2994; experiment: Agar-dilution MIC, anaerobic bacteria; format: cell-based; conditions: 24-hour incubation
Method: as §3

[12] = system: Peptostreptococcus intermedius 1624; experiment: Agar-dilution MIC, anaerobic bacteria; format: cell-based; conditions: 24-hour incubation
[13] = system: Peptostreptococcus anaerobius 1428; experiment: Agar-dilution MIC, anaerobic bacteria; format: cell-based; conditions: 24-hour incubation
Polio III virus = format: cell-based; conditions: tissue culture
pigweed = experiment: Herbicidal activity; format: in vivo; conditions: 200 gpa; either pre-emergence or post-emergence
[14] = system: Fusobacterium necrophorum 6054A; experiment: Agar-dilution MIC, anaerobic bacteria; format: cell-based; conditions: 24-hour incubation
adult housefly = experiment: Insecticidal activity; conditions: in vivo
mustard = experiment: Herbicidal activity; format: in vivo; conditions: 200 gpa; either pre-emergence or post-emergence
[15] = Ionophorous (ion-transport) activity with cations
[16] = system: Peptococcus asaccharolyticus 1302; experiment: Agar-dilution MIC, anaerobic bacteria; format: cell-based; conditions: 24-hour incubation
mitochondrial ATPase = experiment: Inhibition of mitochondrial ATPase in vitro; format: biochemical
From the text: In yet another aspect, the A80190 compounds are active as inhibitors of the enzyme ATPase. ATPase, an alkali-metal-sensitive enzyme found in cell membranes, is involved in the energy necessary for active transport. "Active transport" refers to the energy requiring series of operations whereby intracellular and extracellular fluids maintain their compositions. Inhibitors of ATPase reduce the energy required for active transport. In vitro tests have shown that A80190 inhibits mitochondrial ATPase with a half-effective concentration (IC50) of 0.5 μg/ml.

[17] = pKa in 66% aqueous dimethylformamide; format: physicochemical
From the text: (§4) Antibiotic A80190 has been assigned structure 1 based on X-ray crystallographic studies. A80190 (in its free acid form) has the following characteristics: […]

southern armyworm = experiment: Insecticidal activity; conditions: in vivo
crabgrass = experiment: Herbicidal activity; format: in vivo; conditions: 200 gpa; either pre-emergence or post-emergence
[18] = system: volatile-fatty-acid (VFA) production, rumen; experiment: Ruminant feed-utilization efficiency, VFA ratio treated/control flasks
From the text: The efficiency of feed use can be monitored by observing the production and concentration of propionate compounds in the rumen using the method described by Arthur P. Raun in U.S. Pat. No. 3,794,732 (see especially Example 5).

[19] = system: Eubacterium aerofaciens 1235; experiment: Agar-dilution MIC, anaerobic bacteria; format: cell-based; conditions: 24-hour incubation
Mexican bean beetle = experiment: Insecticidal activity; conditions: in vivo
Treponema hyodysenteriae = experiment: Growth inhibition, swine dysentery agent; format: cell-based
Solubility = format: physicochemical
From the text: as §4

Bacillus subtilis = experiment: Disc-diffusion, zone of inhibition; format: cell-based; conditions: 6-mm pads dipped in 1 mg/ml
Method: (§5) The inhibitory activity of A80190 is illustrated in Table VI. Activity was measured by the conventional disc-diffusion method (6-mm pads were dipped in solutions containing 1 mg of compound per ml of solution; pads were placed on agar plates seeded with test organism).

Mycobacterium avium = experiment: Disc-diffusion, zone of inhibition; format: cell-based; conditions: 6-mm pads dipped in 1 mg/ml
Method: as §5

[20] = system: Saccharomyces pastorianus; experiment: Disc-diffusion, zone of inhibition; format: cell-based; conditions: 6-mm pads dipped in 1 mg/ml
Method: as §5

Neurospora crassa = experiment: Disc-diffusion, zone of inhibition; format: cell-based; conditions: 6-mm pads dipped in 1 mg/ml
Method: as §5

Micrococcus luteus = experiment: Disc-diffusion, zone of inhibition; format: cell-based; conditions: 6-mm pads dipped in 1 mg/ml
Method: as §5

Staphylococcus aureus = experiment: Disc-diffusion, zone of inhibition; format: cell-based; conditions: 6-mm pads dipped in 1 mg/ml
Method: as §5

Candida albicans = experiment: Disc-diffusion, zone of inhibition; format: cell-based; conditions: 6-mm pads dipped in 1 mg/ml
Method: as §5

Caenorhabditis elegans = experiment: Anthelmintic activity; conditions: in vivo
Eimeria tenella = experiment: In vitro tissue culture screen, anticoccidial; format: cell-based; set-up: key: C: cytotoxic; A: active; S: slightly active; N: not active
From the text: Anticoccidial activity is an important property of the A80190 compounds. Table VIII summarizes the results of an in vitro tissue culture screen of A-80190 compounds vs. Eimeria tenella.

blowfly larvae = experiment: Insecticidal activity; conditions: in vivo
[21] = system: Bacteroides vulgatis 1211; experiment: Agar-dilution MIC, anaerobic bacteria; format: cell-based; conditions: 24-hour incubation
mosquito larvae = experiment: Insecticidal activity; conditions: in vivo
[22] = system: natural and artificial membranes; experiment: Cation permeability of membranes

Compound: Oleandomycin
- Resistance to Antibiotics (NRRL 15878; 15 μg): -

Compound: NC[C@@H]1O[C@H](O[C@H]2[C@@H](O)[C@H](O[C@@H]3[C@@H](O)[C@H](N)C[C@H](N)[C@H]3O[C@H]3O[C@H](CN)[C@@H](O)[C@H](O)[C@H]3N)O[C@@H]2CO)[C@H](N)[C@@H](O)[C@@H]1O [Neomycin]
- Resistance to Antibiotics (A. macra; 30 μg): -
- Resistance to Antibiotics (NRRL 15878; 30 μg): -

Compound: NC[C@H]1O[C@H](O[C@H]2[C@H](O)[C@@H](O[C@H]3O[C@H](CO)[C@@H](O)[C@H](N)[C@H]3O)[C@H](N)C[C@@H]2N)[C@H](N)C[C@@H]1O [Tobramycin]
- Resistance to Antibiotics (A. macra; 10 μg): -

Compound: CC[C@@H](O)[C@]1(C)C[C@H](C)[C@@](O)([C@H]2C[C@H](C)[C@H]([C@]3(C)C[C@@H](O[C@H]4CC[C@H](OC)[C@@H](C)O4)[C@H]([C@@H]4CC[C@@]5(O[C@H]([C@@H](C)[C@@H](OC)[C@H](C)C(=O)O)[C@H](C)[C@@H](OC)[C@H]5C)O4)O3)O2)O1 [A80190]
- MIC [1]: 8 µg/mL (≈ 9.65 µM)
- MIC [2]: < 0.5 µg/mL
- MIC [3]: 1 µg/mL (≈ 1.21 µM)
- active when applied at a rate as low as (two-spotted spider mite): 25 ppm
- MIC (Petococcus prevoti 1281): < 0.5 µg/mL
- MIC [4]: > 128 µg/mL
- MIC [5]: > 128 µg/mL
- MIC [6]: < 0.5 µg/mL
- MIC [7]: > 128 µg/mL
- MIC [8]: > 128 µg/mL
- MIC (Bacteroides fragilis 111): > 128 µg/mL
- MIC [9]: > 128 µg/mL
- MIC [10]: > 128 µg/mL
- MIC [11]: < 0.5 µg/mL
- MIC [12]: 1 µg/mL (≈ 1.21 µM)
- MIC [13]: 1 µg/mL (≈ 1.21 µM)
- active at a level of (Polio III virus): 2000 µg/mL
- active at (application rate) (pigweed): 2 lb/acre
- MIC [14]: 16 µg/mL (≈ 19.3 µM)
- active at levels as low as (adult housefly): 35 ppm
- active at (application rate) (mustard): 2 lb/acre
- ionophorous effect, cation preference ([15]; 0.2 μg/ml, Cs+ vs Na+): even greater ionophorous effect with Cs^+ than with Na^+ as cation
- ionophorous activity ([15]; 0.5 μg/ml): showed ionophorous activity
- ionophorous activity, cation preference ([15]; 0.5 μg/ml, Na+, K+ and Rb+ vs Cs+ or Li+): activity with Na^+, K^+ and Rb^+ was better than that with Cs^+ or Li^+
- MIC [16]: 1 µg/mL (≈ 1.21 µM)
- half-effective concentration (IC50) (mitochondrial ATPase): 0.5 µg/mL
- pKa [17]: 6.2
- active at levels as low as (southern armyworm): < 100 ppm
- active at (application rate) (crabgrass): 2 lb/acre
- Molar % Acetate (ratio treated/control) ([18]; 0.3 mcg/ml): 0.970
- Molar % Butyrate (ratio treated/control) ([18]; 0.3 mcg/ml): 0.819
- Molar % Propionate (ratio treated/control) ([18]; 0.3 mcg/ml): 1.220
- Total VFA/Control VFA ([18]; 0.3 mcg/ml): 0.967 mM/L
- Molar % Acetate (ratio treated/control) ([18]; 1 mcg/ml): 0.986 and 0.892 and 1.016 and 0.926
- Molar % Butyrate (ratio treated/control) ([18]; 1 mcg/ml): 0.851 and 0.813 and 0.706 and 0.529
- Molar % Propionate (ratio treated/control) ([18]; 1 mcg/ml): 1.185 and 1.403 and 1.247 and 1.566
- Total VFA/Control VFA ([18]; 1 mcg/ml): 0.916 mM/L and 0.887 mM/L and 0.857 mM/L and 0.913 mM/L
- Molar % Acetate (ratio treated/control) ([18]; 3 mcg/ml): 0.998
- Molar % Butyrate (ratio treated/control) ([18]; 3 mcg/ml): 0.611
- Molar % Propionate (ratio treated/control) ([18]; 3 mcg/ml): 1.368
- Total VFA/Control VFA ([18]; 3 mcg/ml): 0.963 mM/L
- MIC [19]: < 0.5 µg/mL
- active at levels as low as (Mexican bean beetle): < 100 ppm
- inhibits the growth at levels as low as (Treponema hyodysenteriae): 0.39 µg/mL
- Solubility (Solubility; organic solvents): soluble in lower alcohols such as methanol, ketones such as acetone, esters such as ethyl acetate, halogenated hydrocarbons such as chloroform and hydrocarbons such as diethyl ether, benezene, toluene and warm hexane
- Solubility (Solubility; water): Insoluble in water
- Zone of Inhibition (Bacillus subtilis): 23 mm diameter
- Zone of Inhibition (Mycobacterium avium): 21 mm diameter
- Zone of Inhibition [20]: 10 mm diameter
- Zone of Inhibition (Neurospora crassa): 14 mm diameter
- Zone of Inhibition (Micrococcus luteus): 20 mm diameter
- Zone of Inhibition (Staphylococcus aureus): 17 mm diameter
- Zone of Inhibition (Candida albicans): 14 mm diameter
- active at levels as low as (Caenorhabditis elegans): 20 ppm
- Activity vs. Eimeria tenella In Vitro (Eimeria tenella; 0.008 μg/ml): A
- Activity vs. Eimeria tenella In Vitro (Eimeria tenella; 0.04 μg/ml): A
- Activity vs. Eimeria tenella In Vitro (Eimeria tenella; 0.2 μg/ml): A
- Activity vs. Eimeria tenella In Vitro (Eimeria tenella; 1 μg/ml): C
- Activity vs. Eimeria tenella In Vitro (Eimeria tenella; 5 μg/ml): C
- active at levels as low as (blowfly larvae): 35 ppm
- MIC [21]: 16 µg/mL (≈ 19.3 µM)
- active at levels as low as (mosquito larvae): < 50 ppm
- cation permeability [22]: alters the cation permeability of both natural and artificial membranes

Compound: CCC[C@@H]1C[C@@H](C(=O)N[C@@H]([C@H]2O[C@H](SC)[C@H](O)[C@@H](O)[C@H]2O)[C@@H](C)O)N(C)C1 [Lincomycin]
- Resistance to Antibiotics (A. macra; 2 μg): +
